Where two headings read alike, the source gives them in different places.
Columns and labels:
[1] = test system: TNF-α release from human peripheral blood mononuclear cells (PBMC); assay: TNF-α Release in LPS stimulated PBMC; assay type: cell-based; settings: 30 minutes pre-incubation, stimulated 18 hours with lipopolysaccharide, TNF-α in supernatant by enzyme immunoassay
Experimental: Human peripheral blood mononuclear cells (PBMC) were isolated from buffy coats. The blood is mixed with saline at a ratio of 1:1, and the PBMC were isolated using Lymphoprep Tubes™ (Nycomed, Norway). The PBMC were suspended in RPMI1640 with 2% foetal calf serum (FCS), pen/strep and 2 mM L-glutamine at a concentration of […]. The cells were pre-incubated for 30 minutes with the test compounds in 96 well tissue culture plates and stimulated for 18 hours with lipopolysaccharide […] (Sigma). The level of TNF-α was measured in the culture supernatant by enzyme immunoassays using primary and secondary biotinylated antibodies from R&D systems. Results are expressed as IC50 values calculated from inhibition curves using as positive controls the secretion in LPS stimulated wells and as negative controls the secretion in unstimulated cells.

[2] = molecular target: Human recombinant PDE4 (Genbank accession no NM—006203) (Homo sapiens, UniProt Q08499); assay: PDE4 Assay (SPA, cleavage of cAMP); assay type: biochemical
Sequence of Human recombinant PDE4 (Genbank accession no NM—006203) (Q08499 1-673 isoform Q08499-2): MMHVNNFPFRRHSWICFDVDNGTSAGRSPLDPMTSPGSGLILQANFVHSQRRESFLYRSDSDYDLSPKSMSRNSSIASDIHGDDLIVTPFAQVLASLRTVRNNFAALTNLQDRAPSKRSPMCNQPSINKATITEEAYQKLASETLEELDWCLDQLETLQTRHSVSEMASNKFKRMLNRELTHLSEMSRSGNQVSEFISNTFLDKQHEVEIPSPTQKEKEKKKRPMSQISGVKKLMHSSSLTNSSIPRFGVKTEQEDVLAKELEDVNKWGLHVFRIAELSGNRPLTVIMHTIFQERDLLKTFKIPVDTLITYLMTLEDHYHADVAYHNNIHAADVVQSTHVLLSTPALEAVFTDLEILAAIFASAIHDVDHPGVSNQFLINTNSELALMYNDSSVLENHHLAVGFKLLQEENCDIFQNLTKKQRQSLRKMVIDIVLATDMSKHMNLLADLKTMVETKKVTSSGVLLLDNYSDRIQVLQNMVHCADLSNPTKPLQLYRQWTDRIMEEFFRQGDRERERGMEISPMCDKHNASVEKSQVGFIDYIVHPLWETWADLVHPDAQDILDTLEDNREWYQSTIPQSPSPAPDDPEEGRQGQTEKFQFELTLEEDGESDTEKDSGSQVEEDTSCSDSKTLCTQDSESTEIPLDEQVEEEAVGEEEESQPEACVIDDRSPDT
Experimental: Human recombinant PDE4 (Genbank accession no NM_006203) was incubated for 1 hour, with the test compound at concentrations up to 10 μM, with cAMP (1×10^-5M), and with a low amount (0.021 MBq) of radioactively labelled cAMP. At the end of the incubation, the cleavage of the substrate was evaluated by the binding of the AMP product to SPA beads, which generate […] when bound to the radioactive tracer. The AMP product inhibited the binding of the radioactive tracer to the beads, and the luminescent signal was competed. The results were calculated as the molar concentrations resulting in 50% inhibition of the substrate cleavage compared to controls samples, and are expressed as IC50 (M).

[3] = human recombinant PDE4, 1 hour incubation, cAMP 1×10^-5M, test compound up to 10 μM, read-out: IC50 (PDE4)

SMILES | IC50 [1] | IC50 [2, 3] | IC50 [2]
COc1ccc(C(=O)Cc2c(Cl)cncc2Cl)c2c1OC1(CCOCC1)O2 [Compound 101, 2-(3,5-Dichloropyridine-4-yl)-1-(7-methoxy-2′,3′,5′,6′-tetrahydro-spiro[1,3-benzodioxole-2,4′-(4H)-pyran]-4-yl)ethanone] | 28 nM | 26 nM | –
COc1ccc(C(=O)Nc2c(Cl)cncc2Cl)c2c1OC1(CCOCC1)O2 [Compound 102, N-(3,5-Dichloropyridine-4-yl)-7-methoxy-2′,3′,5′,6′-tetrahydro-spiro[1,3-benzodioxole-2,4′-(4H)-pyran]-4-carboxamide] | 88 nM | 41 nM | –
COc1ccc(C(=O)Cc2c(Cl)c[n+]([O-])cc2Cl)c2c1OC1(CCOCC1)O2 [Compound 103, 2-(3,5-Dichloro-1-oxido-pyridine-4-yl)-1-(7-methoxy-2′,5′,6′-tetrahydro-spiro[1,3-benzodioxole-2,4′-(4H)-pyran]-4-yl)ethanone] | 23 nM | 26 nM | –
COc1ccc(C(=O)Cc2c(Cl)cncc2Cl)c2c1OC1(CCSC1)O2 (centres unmarked) [Compound 104, 2-(3,5-Dichloropyridine-4-yl)-1-(7-methoxy-4′,5′-dihydro-spiro[1,3-benzo-dioxole-2,3′-(2H)-thiophen]-4-yl)ethanone] | 44 nM | 10 nM | –
COc1ccc(C(=O)Cc2c(Cl)cncc2Cl)c2c1OC1(CCNCC1)O2 [Compound 105, 2-(3,5-Dichloropyridine-4-yl)-1-(7-methoxy-spiro[1,3-benzodioxole-2,4′-piperidine]-4-yl)ethanone] | 800 nM | – | 310 nM
COC(=O)N1CCC2(CC1)Oc1c(OC)ccc(C(=O)Cc3c(Cl)cncc3Cl)c1O2 [Compound 106, 2-(3,5-Dichloropyridine-4-yl)-1-(7-methoxy-1′-[methoxycarbonyl]-spiro[1,3-benzodioxole-2,4′-piperidine]-4-yl)ethanone] | 158 nM | – | 127 nM
COc1ccc(C(=O)Cc2c(Cl)cncc2Cl)c2c1OC1(CCN(S(C)(=O)=O)CC1)O2 [Compound 107, 2-(3,5-Dichloropyridine-4-yl)-1-(7-methoxy-1′-[methylsulfonyl]-spiro[1,3-benzodioxole-2,4′-piperidine]-4-yl)ethanone] | 910 nM | 590 nM | –
COc1ccc(C(=O)Cc2c(Cl)cncc2Cl)c2c1OC1(CCN(C(C)=O)CC1)O2 [Compound 108, 2-(3,5-Dichloropyridine-4-yl)-1-(7-methoxy-1′-acetyl-spiro[1,3-benzodioxole-2,4′-piperidine]-4-yl)ethanone] | 167 nM | – | 220 nM
COc1ccc(C(=O)Cc2c(Cl)cncc2Cl)c2c1OC1(CCSCC1)O2 [Compound 110, 2-(3,5-Dichloropyridine-4-yl)-1-(7-methoxy-2′,3′,5′,6′-tetrahydro-spiro[1,3-benzodioxole-2,4′-(4H)-thiopyran]-4-yl)ethanone] | 17 nM | 11 nM | –
COc1ccc(C(=O)Cc2c(Cl)cncc2Cl)c2c1OC1(CC[S+]([O-])CC1)O2 (centres unmarked) [Compound 111, 2-(3,5-Dichloropyridine-4-yl)-1-(7-methoxy-2′,3′,5′,6′-tetrahydro-spiro[1,3-benzodioxole-2,4′-(4H)-thiopyran 1′-oxide]-4-yl)ethanone] | 19 nM | 18 nM | –
COc1ccc(C(=O)Cc2c(Cl)cncc2Cl)c2c1OC1(CCS(=O)(=O)CC1)O2 [Compound 112, 2-(3,5-Dichloropyridine-4-yl)-1-(7-methoxy-2′,3′,5′,6′-tetrahydro-spiro[1,3-benzodioxole-2,4′-(4H)-thiopyran-1,1′-dioxide]-4-yl)ethanone] | 34 nM | 29 nM | –
COc1ccc(C(=O)Cc2c(Cl)c[n+]([O-])cc2Cl)c2c1OC1(CCS(=O)(=O)CC1)O2 [Compound 113, 2-(3,5-Dichloro-1-oxido-pyridine-4-yl)-1-(7-methoxy-2′,3′,5′,6′-tetrahydro-spiro[1,3-benzodioxole-2,4′-(4H)-thiopyran-1′,1′-dioxide]-4-yl)ethanone] | 82 nM | 53 nM | –
COc1ccc(C(=O)Cc2ccncc2Br)c2c1OC1(CCSCC1)O2 [Compound 114, 2-(3-bromopyridine-4-yl)-1-(7-methoxy-2′,3′,5′,6′-tetrahydro-spiro[1,3-benzodioxole-2,4′-(4H)-thiopyran]-4-yl)ethanone] | 95 nM | 45 nM | –
COc1ccc(C(=O)Cc2nccnc2Br)c2c1OC1(CCSCC1)O2 [Compound 115] | 471 nM | 1410 nM | –
COc1ccc(C(=O)Cc2cnccn2)c2c1OC1(CCSCC1)O2 [Compound 116, 2-(-pyrazin-2-yl)-1-(7-methoxy-2′,3′,5′,6′-tetrahydro-spiro[1,3-benzodioxole-2,4′-(4H)-thiopyran]-4-yl)ethanone] | 2940 nM | 1290 nM | –
COc1ccc(C(=O)Cc2ccncc2)c2c1OC1(CCSCC1)O2 [Compound 117, 2-(-pyridin-4-yl-)-1-(7-methoxy-2′,3′,5′,6′-tetrahydro-spiro[1,3-benzo-dioxole-2,4′-(4H)-thiopyran]-4-yl)ethanone] | 286 nM | 207 nM | –
COc1ccc(C(=O)Cc2ccnc3ccccc23)c2c1OC1(CCSCC1)O2 [Compound 118, 2-(quinolin-4-yl-)-1-(7-methoxy-2′,3′,5′,6′-tetrahydro-spiro[1,3-benzo-dioxole-2,4′-(4H)-thiopyran]-4-yl)ethanone] | 5520 nM | 1800 nM | –
COc1ccc(C(=O)Cc2c(Cl)cccc2Cl)c2c1OC1(CCSCC1)O2 [Compound 119, 2-(2,6-Dichloro-phenyl)-1-(7-methoxy-2′,3′,5′,6′-tetrahydro-spiro[1,3-benzo-dioxole-2,4′-(4H)-thiopyran]-4-yl)ethanone] | 508 nM | 71 nM | –
COc1ccc(C(=O)Cc2ccccc2Cl)c2c1OC1(CCSCC1)O2 [Compound 120, 2-(2-chloro-phenyl)-1-(7-methoxy-2′,3′,5′,6′-tetrahydro-spiro[1,3-benzo-dioxole-2,4′-(4H)-thiopyran]-4-yl)ethanone] | 1250 nM | 310 nM | –
COc1ccc(C(=O)Cc2c(Cl)cncc2Cl)c2c1OCC1(COC1)CO2 [Compound 121, 2-(3,5-Dichloropyridin-4-yl)-1-{9-methoxy-spiro[2H-1,5-benzodioxepin-3(4H),3′-oxetane]-6-yl}ethanone] | 64 nM | 52 nM | –
COc1ccc(C(=O)Cc2c(Cl)c[n+]([O-])cc2Cl)c2c1OCC1(COC1)CO2 [Compound 122, 2-(3,5-Dichloro-1-oxido-pyridin-4-yl)-1-{9-methoxy-spiro[2H-1,5-benzodioxepin-3(4H),3′-oxetane]-6-yl}ethanone] | 20 nM | 50 nM | –
COc1ccc(C(=O)Cc2c(Cl)cncc2Cl)c2c1OCC1(CO2)CSC1 [Compound 123, 2-(3,5-Dichloropyridin-4-yl)-1-{9-methoxy-spiro[2H-1,5-benzodioxepin-3(4H),3′-thietane]-6-yl}ethanone] | 35 nM | 17 nM | –
COc1ccc(C(=O)Cc2c(Cl)cncc2Cl)c2c1OCC1(CO2)CS(=O)(=O)C1 [Compound 124, 2-(3,5-Dichloropyridin-4-yl)-1-{9-methoxy-spiro[2H-1,5-benzodioxepin-3(4H),3′-thietane-1′,1′-dioxide]-6-yl}ethanone] | 135 nM | 104 nM | –
COc1ccc(C(=O)Cc2c(Cl)c[n+]([O-])cc2Cl)c2c1OCC1(CO2)CS(=O)(=O)C1 [Compound 125, 2-(3,5-Dichloropyridin-1-oxido-4-yl)-1-{9-methoxy-spiro[2H-1,5-benzodioxepin-3(4H),3′-thietane-1′,1′-dioxide]-6-yl}ethanone] | 135 nM | 200 nM | –
COc1ccc(C(=O)Cc2c(Cl)cncc2Cl)c2c1OCC1(CO2)OCCO1 [Compound 126, 2-(3,5-Dichloropyridin-4-yl)-1-{9-methoxy-spiro[2H-1,5-benzodioxepin-3(4H),2′-(1,3-dioxolane)]-6-yl}ethanone] | 111 nM | 67 nM | –
COc1ccc(C(=O)Cc2c(Cl)cncc2Cl)c2c1OCC1(CCOCC1)CO2 [Compound 127, 2-(3,5-Dichloropyridin-4-yl)-1-{9-methoxy-spiro[2H-1,5-benzodioxepin-3(4H),4′-tetrahydropyran]-6-yl}ethanone] | 27 nM | 22 nM | –
COc1ccc(C(=O)Cc2c(Cl)c[n+]([O-])cc2Cl)c2c1OCC1(CCOCC1)CO2 [Compound 128, 2-(3,5-Dichloro-1-oxido-pyridin-4-yl)-1-{9-methoxy-spiro[2H-1,5-benzodioxepin-3(4H),4′-tetrahydropyran]-6-yl}ethanone] | 9 nM | 11 nM | –
COc1ccc(C(=O)Cc2c(Cl)cncc2Cl)c2c1OCC1(COCOC1)CO2 [Compound 130, 2-(3,5-Dichloropyridin-4-yl)-1-{9-methoxy-spiro[2H-1,5-benzodioxepin-3(4H),5′-[1,3]dioxane]-6-yl}ethanone] | 50 nM | 40 nM | –

From patent publication US8338431B2, “Phosphodiesterase inhibitors” (Leo Pharma A/S, priority 2007, dated 2012)
